According to patent US12371416B2, “Compounds for inhibition of fibroblast activation protein” (USTAV ORGANICKE CHEMIE A BIOCHEMIE AV CR, V. V. I., priority 2020, dated 2025):
Entries after “also recorded” stand apart in the source; their conditions may differ.

Legend:
Hela = assay: Cytotoxicity (XTT) on Hela cells; type: cell-based, human; conditions: 72 h
Procedure: (§1) The cytotoxicity of the substances was measured on four tumour cell lines: CCRF-CEM, HepG2, Hela, HL-60. All cell lines were purchased from ATCC (Manassas, VA, USA). Cells were cultured in RPMI-1640 or DMEM medium containing 10% (wt/wt) FBS and 1% (wt/wt) GlutaMax. Cells were distributed at 2,000-10,000 per well of a 384-well plate (Thermo Fisher Scientific, Waltham, USA) and incubated overnight. After 24 hours, test substance solutions (10 or 100 μmol·l^−1) were added to the wells and the cells were incubated with the test substances at 37° C. and 5% (vol./vol.) CO2 for another 72 h. XTT dye (XTT cell proliferation kit II, Roche Diagnostics GmbH, Mannheim, Germany) was added to the wells according to the manufacturer's protocol. After one hour of incubation with the dye, the absorbance at 495 nm was measured and the signal was compared with the control (100% viability=cells without test substance).

[1] = Stability in murine plasma; type: in vitro ADME; conditions: 37° C., up to 120 minutes
Procedure: (§2) An aliquot of plasma was extracted with 120 μl of methanol containing caffeine as an internal standard. The solution was vortexed (5 min) and centrifuged (20500 g; 10 min), the supernatant was transferred to a vial, and 1 μl of the mixture was used for LC-MS analysis. […] Results are presented as the percentage of test substance versus control (aliquot taken at time 0).

CCRF-CEM = assay: Cytotoxicity (XTT) on CCRF-CEM cells; type: cell-based, human; conditions: 72 h
Procedure: as §1

DPPIV = molecular target: T1, DPPIV (Homo sapiens, UniProt P27487); assay: Inhibitory activity against human recombinant DPPIV (IC50); type: biochemical; conditions: selected substances
T1 construct: purchased R&D Systems 9168-SE-010
Procedure: (§3) Data were analysed by nonlinear regression with GraphPrism (version 8.3.1). The measurement results are given as values of the mean inhibitory concentration IC50 and its linearized form via the negative decimal logarithm of pIC50.

HL-60 = assay: Cytotoxicity (XTT) on HL-60 cells; type: cell-based, human; conditions: 72 h
Procedure: as §1

[2] = tested on: four human tumour cell lines; assay: Cytotoxicity on four human tumour cell lines (summary statement); type: cell-based; conditions: two concentrations differing by 1 order of magnitude
Procedure: as §1

PREP = molecular target: T2, PREP (Homo sapiens, UniProt P48147); assay: Inhibitory activity against human recombinant PREP (IC50); type: biochemical; conditions: selected substances
T2 construct: purchased R&D Systems 4308-SE-010
T2 sequence (P48147 1-710): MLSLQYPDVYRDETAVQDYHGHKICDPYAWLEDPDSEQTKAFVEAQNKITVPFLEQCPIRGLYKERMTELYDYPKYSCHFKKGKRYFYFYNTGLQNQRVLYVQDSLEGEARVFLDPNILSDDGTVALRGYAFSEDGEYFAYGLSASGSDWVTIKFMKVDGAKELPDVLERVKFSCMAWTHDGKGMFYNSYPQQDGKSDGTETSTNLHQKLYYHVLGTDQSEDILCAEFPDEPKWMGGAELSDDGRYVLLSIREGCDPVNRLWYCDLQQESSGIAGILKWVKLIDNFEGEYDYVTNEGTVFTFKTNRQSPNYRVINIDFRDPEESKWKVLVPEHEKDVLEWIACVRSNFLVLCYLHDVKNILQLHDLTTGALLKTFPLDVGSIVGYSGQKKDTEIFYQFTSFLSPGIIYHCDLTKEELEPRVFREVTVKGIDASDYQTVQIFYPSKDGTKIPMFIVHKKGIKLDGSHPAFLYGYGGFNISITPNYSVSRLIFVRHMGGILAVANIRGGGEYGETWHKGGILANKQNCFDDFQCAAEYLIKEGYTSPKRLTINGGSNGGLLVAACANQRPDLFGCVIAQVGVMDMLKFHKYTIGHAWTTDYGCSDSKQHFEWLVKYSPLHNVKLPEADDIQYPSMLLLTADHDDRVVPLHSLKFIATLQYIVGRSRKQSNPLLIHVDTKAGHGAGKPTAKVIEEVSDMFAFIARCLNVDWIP
Procedure: as §3

[3] = Stability in murine microsomes; type: in vitro ADME; conditions: murine microsomes 0.5 mg/ml, 5 μmol·l^−1 test substance, NADPH
Procedure: The incubation of 37.5 μl of the mixture was terminated by the addition of 150 μl of acetonitrile containing caffeine as an internal standard, cooled to 0° C. The mixture was vortexed (5 min) and centrifuged (20500 g; 10 min). The supernatant was transferred to a vial, and 1 μl of the mixture was used for LC-MS analysis. […] Results are presented as the percentage of test substance versus control (aliquot taken at time 0).

[4] = Stability in human plasma; type: in vitro ADME; conditions: 37° C., up to 120 minutes
Procedure: as §2

HepG2 = assay: Cytotoxicity (XTT) on HepG2 cells; type: cell-based, human; conditions: 72 h
Procedure: as §1

T1 sequence (P27487 whole entry): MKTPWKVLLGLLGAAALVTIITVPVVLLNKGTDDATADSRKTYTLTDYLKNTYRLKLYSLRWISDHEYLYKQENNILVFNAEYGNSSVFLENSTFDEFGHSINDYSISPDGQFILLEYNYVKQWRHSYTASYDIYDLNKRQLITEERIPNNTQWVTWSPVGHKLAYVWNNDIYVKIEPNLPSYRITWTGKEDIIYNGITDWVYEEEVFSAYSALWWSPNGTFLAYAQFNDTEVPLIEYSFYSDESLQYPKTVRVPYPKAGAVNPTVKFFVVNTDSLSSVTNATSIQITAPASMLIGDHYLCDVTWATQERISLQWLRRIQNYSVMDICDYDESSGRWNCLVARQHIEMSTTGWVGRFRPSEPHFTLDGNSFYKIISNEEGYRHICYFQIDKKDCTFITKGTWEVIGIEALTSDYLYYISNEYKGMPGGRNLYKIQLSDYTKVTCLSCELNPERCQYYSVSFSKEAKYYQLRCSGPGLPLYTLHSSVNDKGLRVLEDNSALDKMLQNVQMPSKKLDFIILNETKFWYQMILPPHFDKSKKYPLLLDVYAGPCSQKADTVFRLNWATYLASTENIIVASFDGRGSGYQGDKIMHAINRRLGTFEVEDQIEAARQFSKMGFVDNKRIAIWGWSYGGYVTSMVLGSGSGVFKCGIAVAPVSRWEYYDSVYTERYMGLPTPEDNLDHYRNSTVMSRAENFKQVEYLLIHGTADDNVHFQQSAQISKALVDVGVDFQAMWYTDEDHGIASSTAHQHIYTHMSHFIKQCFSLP

Structure (SMILES): COc1ccc(CNC(=O)C(=O)[C@@H]2CCCN2C(=O)CNC(=O)c2ccnc3ccccc23)cc1OC [Compound 3b, (S)—N-(2-(2-(2-((3,4-Dimethoxybenzyl)amino)-2-oxoacetyl)pyrrolidin-1-yl)-2-oxoethyl)quinoline-4-carboxamide]
- Cell viability HeLa S3 10 μM (Hela; 10 μM): 106 % vs. control
- Cell viability HeLa S3 100 μM (Hela; 100 μM): 78 % vs. control
- Stability in murine plasma [1]: stable; also recorded: high stability
- Cell viability CEM 10 μM (CCRF-CEM; 10 μM): 106 % vs. control
- Cell viability CEM 100 μM (CCRF-CEM; 100 μM): 88 % vs. control
- IC50 (DPPIV): > 4000 nM
- Cell viability HL60 10 μM (HL-60; 10 μM): 88 % vs. control
- Cell viability HL60 100 μM (HL-60; 100 μM): 100 % vs. control
- Cytotoxicity [2]: low cytotoxicity
- IC50 (PREP): 0.4 nM
- Stability in murine microsomes [3]: stable; also recorded: high stability
- Stability in human plasma [4]: stable; also recorded: excellent stability
- Cell viability HepG2 10 μM (HepG2; 10 μM): 97 % vs. control
- Cell viability HepG2 100 μM (HepG2; 100 μM): 92 % vs. control
